ChEMBL document CHEMBL5584342, “The Missing Link(er): A Roadmap to Macrocyclization in Drug Discovery” (J Med Chem, 2024)

Experiment: Lipophilicity, log D of compound at pH 7.4
Conditions: buffer

logD: 3
Compound: CO[C@H]1/C(F)=C/C[C@H](C)[C@@H](C)S(=O)(=O)NC(=O)c2ccc3c(c2)N(C[C@@H]2CCO[C@H]21)C[C@@]1(CCCc2cc(Cl)ccc21)CO3
